Laboratory results as given in the METLIN SMRT retention time set (Domingo-Almenara et al. 2019).

Test: gradient 5% acetonitrile 3 min, to 50% in 2 min, to 85% in 15 min, held 3 min, 100 µL/min
Conditions: column: Zorbax Extend-C18 2.1 x 50 mm; eluents: water / acetonitrile, 0.1% formic acid
Method in brief: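 Pure standards were analyzed in mixtures of ~100 molecules using HPLC coupled to a quadrupole time-of-flight mass spectrometer, in both positive and negative ionization mode. Separation used a Zorbax Extend-C18 column (2.1 × 50 mm, 1.8 μm) at 100 μL/min, with water and acetonitrile each containing 0.1% formic acid. Dead and dwell volumes were 40 μL and 900 μL, and data were collected over 3 months. Retention time was read from computationally picked adduct peaks, each inspected manually.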

RP-LC retention time [s]	SMILES
659	O=C(NC1CCCCC1)C1CCCN(C(=O)c2cc(-c3ccccn3)n[nH]2)C1 (centres undefined)
862	Cc1cc2nn(CC(=O)Nc3ccc(C(C)C)cc3)c(=O)n2c(-c2ccccc2)n1
810	CCOC(=O)C1CCN(S(=O)(=O)c2cccc3nsnc23)CC1
619	CC(C)c1cc(=O)n(CC(=O)NCCn2nc(-c3cccs3)ccc2=O)cn1
1010	CCc1nn2c(CNS(=O)(=O)Cc3cc(F)cc(F)c3)c(-c3ccccc3)nc2s1
582	O=C(NCCc1c[nH]c2ccccc12)C(=O)NCC(c1ccco1)N1CCOCC1 (centres undefined)
737	Cc1ccc(N2C(=O)CN(Cc3ccco3)[C@H]3CS(=O)(=O)C[C@H]32)cc1
1250	Cc1cc(NC(=O)c2c(O)c3cccnc3n(-c3ccc(F)cc3)c2=O)ccc1F
1100	Cc1ccc(-c2nc(-c3ccnc(N4CCOCC4)c3)no2)cc1F
968	Cc1cccc(N2CCN(C(=O)CCC(=O)N3CCCn4nc(-c5cccn5C)cc43)CC2)c1C
666	CCN1CCN(C(=O)C2CCN(c3nc4ccc(-c5ccsc5)nc4s3)CC2)CC1
964	Cc1c(Cl)cccc1NC(=O)C(=O)NC1CCCC1
1100	CC1CCN(c2cnn(CC(=O)Nc3cccc(C(C)C)c3)c(=O)c2Cl)CC1
593	O=C(NCCc1ccccc1)N1CCN(CCn2c(-c3ccncc3)nc3cccnc32)CC1
880	CCc1nc(-c2csc(S(=O)(=O)N3CCC(C(=O)NC4CCCC4)CC3)c2)no1
1060	COc1ccc(-n2c(=O)c3sccc3n(Cc3nc(-c4ccc(OC(C)C)cc4)no3)c2=O)cc1
731	CC(=O)N1CCC(C(=O)Nc2nc(C(C)(C)C)cs2)CC1
988	COc1cccc(N2CCN(C(=O)c3cc4sccc4n3C)CC2)c1
1060	CCOC(=O)c1noc2ncnc(Nc3cccc(CC)c3)c12
638	CCN(CC)c1cc(CNC(=O)Nc2cc(Cl)c(OC)cc2OC)ccn1
1080	CCn1ccc2cc(S(=O)(=O)N3CCCC(C(=O)NC4CCCCCC4)C3)ccc21 (centres undefined)
1010	CC(C)Oc1ccc(-c2noc(-c3nn(-c4cccc(F)c4)ccc3=O)n2)cc1
980	CCN1C(=O)c2cc(S(=O)(=O)Nc3cc(F)ccc3F)ccc2Oc2cccnc21

RP-LC retention time [s]	SMILES
737	Cc1ccc2nc(-c3cc(Br)ccc3F)c(Nc3ccc4c(c3)OCCO4)n2c1
748	Cn1nc(C(=O)N2CCCC(C(=O)Nc3ccccc3)C2)c2c1CCN(C(=O)Cc1cccs1)C2 (centres undefined)
891	Cc1oc2ccn(Cc3cccc(F)c3)c(=O)c2c1C(=O)NCC1CCCO1 (centres undefined)
713	COc1ccc(-c2cc(C(=O)N3CCC(NC(=O)C4CCCC4)CC3)[nH]n2)cc1
796	COc1ccc2c(CCNC(=O)CCc3ccccc3)c[nH]c2c1
873	Cc1ccccc1CNC(=O)C1=C2CCCN2c2ccccc2S1(=O)=O
875	S=C(NCc1ccc2c(c1)OCO2)N1CCN(c2ncnc3c2oc2ccccc23)CC1
694	Cc1noc([C@@H]2CC(F)(F)CN2C(=O)c2coc(C)n2)n1
1030	CC(=O)Oc1cc(-c2cccc(C(F)(F)F)c2)c2oc(=O)sc2c1
596	Cc1nc2nc(-c3ccco3)nn2c(N2CCN(c3ccccn3)CC2)c1C
955	COc1ccccc1N1CCN(c2ncc(S(=O)(=O)c3ccc(C)cc3)c(N)n2)CC1
901	O=C(Cn1c(=O)c2cccn2c2ccccc21)Nc1ccc(Cl)cc1
756	CCCCNC(=O)C1CCC(=O)N(c2ccc(OC)cc2)C1c1ccc(OC)cc1 (centres undefined)
1020	COc1ccccc1-c1nc2nccc(-c3ccc(Br)s3)n2n1
904	Cc1ccccc1CNC(=O)C1(C)CCCN(C(=O)NC2CCCCC2)C1 (centres undefined)
862	CC(NC(=O)c1ccc2c(c1)CCCN2S(C)(=O)=O)c1ccccc1 (centres undefined)
1100	CCc1ccc(CNC(=O)c2nc3cccnc3n(CC(C)C)c2=O)cc1
928	Cc1cccc(Nc2c(-c3ccc4c(c3)OCO4)nc3cnccn23)c1C
649	Cc1nnc(CNC(=O)c2cc(-c3ccc(F)cc3)c[nH]2)o1
618	Cc1ccc([N+](=O)[O-])cc1S(=O)(=O)N1CCN(c2cccc(Cl)c2)CC1
625	O=C(CN1CCN(CC(=O)c2cccs2)CC1)Nc1cc(C(F)(F)F)ccc1Cl
650	COc1ccccc1OCC(O)COC(N)=O (centres undefined)
707	COc1ccc(S(=O)(=O)CCC(=O)Nc2ccc(Cl)c3ncsc23)cc1

RP-LC retention time [s]	SMILES
600	COc1ccc(N2CC(C(=O)N3CCC(C(=O)N4CCC(C(N)=O)CC4)CC3)CC2=O)cc1 (centres undefined)
652	Cn1cc(S(=O)(=O)N2CCCC2)cc1C(=O)N1CCn2c1nc1ccccc12
818	Cc1ccc(CNC(=O)C2CCN(C(=O)C3Sc4ccccc4NC3=O)CC2)cc1 (centres undefined)
628	O=C(c1csc(N2CCCC2)n1)N1CCOCC1
1090	CC1CC(C)CN(S(=O)(=O)c2cccc(-c3cn4cc(Cl)ccc4n3)c2)C1 (centres undefined)
1000	Cc1ccc(C)c2sc(OC3CCN(C(=O)c4ccc(S(C)(=O)=O)cc4)CC3)nc12
535	O=C(NCCCN1CCCC1=O)C1CCN(c2cncnc2N2CCOCC2)CC1
1140	CSc1ccc(-c2noc(CN3C(=O)C(C)Oc4ccccc43)n2)cc1 (centres undefined)
1180	O=S(=O)(c1cc(Cl)ccc1Cl)N1CCc2nc(-c3ccccc3)ncc2C1
767	COCCn1ccc2nc(C)c(C(=O)NCCc3c[nH]c4ccccc34)cc2c1=O
1160	O=C(NC1CCc2ccccc21)C1CCN(c2ncccc2-c2nc(-c3cccc(F)c3)no2)CC1 (centres undefined)
1260	CC(C)Oc1cc(O)c2c(=O)cc(-c3ccccc3)oc2c1
1130	C#CCOCC1CCCN(S(=O)(=O)c2cc(C)c(Cl)cc2Cl)C1 (centres undefined)
586	CC(C)N1C[C@H](O)C[C@H]1c1nnc2n1CCN(C(=O)c1ccc3ccccc3n1)C2
829	O=S(=O)(c1cccn2c(SCc3ccc(F)cc3)nnc12)N1CCCC1
922	Cc1nc(-c2nc3c(s2)CN(C(=O)COc2ccc(Cl)cc2)CC3)cs1
613	CNC(=O)[C@@H]1C[C@@H](O)CN1C1CCN(C(=O)c2cc(C)oc2C)CC1
691	CCCCNC(=O)C1CCCN(C(=O)c2[nH]c(C)cc2C)C1 (centres undefined)
816	CCn1ncc(NC(=O)c2ccc(C)cc2)c(N2CCOCC2)c1=O
765	N#Cc1ccc(C(=O)NC(c2ccccc2)c2nnc(N3CCCC3)o2)cc1 (centres undefined)
698	COc1ccc(NC(=O)C2CCCN(c3cnc4nccnc4c3)C2)cc1 (centres undefined)
984	CCCS(=O)(=O)N1CCC2(CC1)CC(OCc1ccccc1)CCO2 (centres undefined)
843	N#Cc1cccc(C(=O)N2CCOc3ccccc32)c1

RP-LC retention time [s]	SMILES
642	O=C(CSc1nnc(N2CCN(C(=O)c3cccs3)CC2)s1)NCc1ccco1
658	CN(C)c1ccc(CNC(=O)c2nnc(-c3ccc(S(=O)(=O)N(C)C)cc3)o2)cc1
846	CCc1onc(C)c1C1CCCN1C(=O)CCc1ccccc1 (centres undefined)
801	Cc1ccc2[nH]cc(CCN3CC(C(=O)Nc4nnc(C(C)(C)C)s4)CC3=O)c2c1 (centres undefined)
773	Cc1ccc(Cl)cc1NC(=O)N1CC=C(c2cn(C)c3ncccc23)CC1
804	CCOC(=O)c1cccc(NC(=O)N2CCC3(CC2)NC(=O)c2ccccc2O3)c1
906	Cc1ccc(Nc2nc(C(=O)NC3CCCCC3)nc3ccccc23)cc1
654	COCC1CN(S(=O)(=O)Cc2ccc(C)c(C)c2)CC12CCNCC2 (centres undefined)
994	CC(C)Cn1cc(S(=O)(=O)Nc2cc(F)cc(F)c2)c2cccnc21
1130	CCOc1ccc(-c2noc(CN3C(=O)COc4ccc(Cl)cc43)n2)cc1
703	COc1ccc2[nH]c(C(=O)NC3CC3)cc2c1
602	COc1cccc(CN2CCC([C@H]3[C@@H](OC)C(=O)N3C(C)C)CC2)n1
614	CO[C@@H](C(=O)N1Cc2[nH]nc(NC(=O)c3ccc(N4CCN(C)CC4)cc3)c2C1)c1ccccc1
565	O=C(Cc1ccc(F)cc1)NCC#CCN1CCc2ccccc2C1
759	CC(C)c1nnc(-c2cccnc2N2CCN(C(=O)c3ccc4c(c3)OCO4)CC2)o1
665	Cc1noc(C2CN(C(=O)c3n[nH]c4ccccc34)CC23CCOCC3)n1 (centres undefined)
994	CCCn1ccc2sc(C)c(C(=O)NC(C)c3ccc(F)cc3)c2c1=O (centres undefined)
692	O=C(COc1ccccc1)NCC1CC(=O)N(Cc2ccc(F)cc2)C1 (centres undefined)
779	Cc1nnc2ccc(N3CCC(C(=O)NC(C)CCc4ccccc4)CC3)nn12 (centres undefined)
626	CCC(=O)N1CCc2cc(C(=O)NC)ccc21
